The text below walks through data of patent publication US20260325489A1, “PHARMACEUTICAL COMPOSITIONS COMPRISING 5-METHOXY-N,N-DIMETHYLTRYPTAMINE (5-MEO-DMT)” (Beckley Psytech Limited, priority 2023, published 2026).

“Also recorded” adds a separate entry of the source.

Data set [1] is described as follows: Phase 1 single ascending dose study of intranasal 5-MeO-DMT HCl in healthy subjects. As to conditions: human plasma. Type of data set: in vivo. The text has this: (§1) The applicant has funded double-blind, randomised, Phase 1, single ascending dose studies to evaluate the safety, tolerability and pharmacokinetic profile of intranasal 5-MeO-DMT hydrochloride and intranasal 5-MeO-DMT benzoate in healthy subjects. […] It is desirable that a compound for use in treatment has dose-proportional pharmacokinetics, for example, to facilitate dose and dose regimen adjustment in patients. In an embodiment, there is provided a salt of 5-MeO-DMT with dose-proportional pharmacokinetics, optionally for use in the methods disclosed herein. In an embodiment, the salt of 5-MeO-DMT with dose-proportional pharmacokinetics is the benzoate or HBr salt, optionally the benzoate salt. A double-blind, randomised, Phase 1, single ascending dose study to evaluate the safety, tolerability and pharmacokinetic profile of a liquid intranasal 5-MeO-DMT HCl (5-MeO-DMT HCl, HPMC, water for injection (WFI) and a sodium hydroxide solution to adjust pH) pharmaceutical composition/formulation in healthy subjects was performed.

Data set [2] is described as follows: physical stability / hygroscopicity of salts and formulations.
Data set [3] is classed as in vivo, human (healthy subjects).
Description: as §1
A double-blind, randomised, Phase 1, single ascending dose study to evaluate the safety, tolerability and pharmacokinetic profile of intranasal 5-MeO-DMT benzoate in healthy subjects was performed.

Data set [4] can be described thus: dissolution rate (UV-fibre optic dissolution apparatus, simulated nasal fluid). Type of data set: physicochemical. As for the experimental part: The dissolution rate of SDD was determined using a method comprising the use of a UV-fibre optic-based dissolution apparatus (one such suitable device is the Rainbow® Dynamic Dissolution Monitor by Pion Inc) and simulated nasal fluid. The simulated nasal fluid comprises 7.45 g/L NaCl, 1.29 g/L KCl, 0.32 g/L CaCl2)×2H2O and deionised water.

Data set [5] can be described thus: solid state by XRPD and DSC. Type of data set: physicochemical. As to conditions: XRPD and/or DSC, after spray drying or lyophilisation. As for the experimental part:
Unless otherwise stated herein all X-ray powder diffractograms (XRPD) were generated using an X-ray wavelength of 1.5406 Å; all modulated differential scanning calorimetry (DSC) thermograms were generated using a 2 °C/min heating rate.

Data set [6] can be described thus: thermal decomposition properties of salt forms (TGA). It counts as physicochemical. The text has this:
The thermal decomposition properties of a range of salt forms of 5-MeO-DMT has been investigated and is summarised in the report below: […]

As for `COc1ccc2[nH]cc(CCN(C)C)c2c1.Cl` [5-MeO-DMT HCl], the mean concentration profiles result in data set [1] (5 mg, 8 mg, 10 mg, 11 mg and 14 mg) was “substantially similar”. The dose-proportional pharmacokinetics result in data set [1] (liquid intranasal HCl formulation, 5, 8, 10, 11 and 14 mg) is on record as “does not display dose-proportional pharmacokinetics”. Moreover, the “stability profile, in words” value in data set [2] is “issues relating to stability, discoloration and a reduction in desirable pharmacokinetic properties”.

Regarding `COc1ccc2[nH]cc(CCN(C)C)c2c1.O=C(O)c1ccccc1` [5-MeO-DMT benzoate], in data set [3] (intranasal, 12 mg dosage, human plasma), the “mean Cmax” value is 29 ng/mL. Besides, the “mean Tmax” value in data set [3] (intranasal, human plasma) turned out to be 9.5 min. Also, the “dissolution rate / profile, in words” value in data set [4] is reported as “almost instantaneous dissolution rate; also recorded: a reduced dissolution rate as compared to the amorphous form of 5-MeO-DMT salts”. Also, the “solid state of the dispersion produced” value in data set [5] is listed as “amorphous dispersion with no sign of the crystalline benzoate salt”. In data set [6], the mass loss entry is reported as “full mass loss” and the “temperature at which decomposition starts” value was about 220 °C. Moreover, in data set [2], the “physical / state stability, in words” value is “storage at 2-8° C., and protection from moisture, prevents recrystallisation and aggregation; also recorded: stable crystalline spray dried dispersion particle with no respirable API fines or significant aggregation”; the “stability profile, in words” value is reported as “good stability profile”.

On to `Br.COc1ccc2[nH]cc(CCN(C)C)c2c1` [5-MeO-DMT hydrobromide], for which the “temperature at which gross decomposition starts” value in data set [6] is “Melt 149 °C, gross decomp starts 220 °C”. The “physical / state stability, in words” value in data set [2] was “stable amorphous dispersion without the need for any additional drying step post spray drying; also recorded: state-stable when stored at above the temperature range 2-8 °C”.

With `C1=Cc2cccc(OC[C@H]3CNCCO3)c2C1.O=S(=O)(O)c1ccccc1` [Benzenesulfonate], the “temperature at which gross decomposition starts” value in data set [6] was “Melt 76 °C, gross decomp starts 280 °C”.

As to `CN(C)CCc1c[nH]c2ccc(O)cc12` [Bufotenin], in data set [3] (6 mg dose level of intranasal 5-MeO-DMT benzoate, after the 16 minutes time point), the “detection of O-demethylated metabolite (Bufotenin)” value is “only detected at very low levels”.

For the molecule `O=C(O)CCC(=O)C(=O)O` [Ketoglutarate], the “temperature at which gross decomposition starts” value in data set [6] is “Melt 85 °C, gross decomp starts 170 °C”.

In the case of `O=C(O)CC(O)C(=O)O` (centres unmarked) [Malate], the “temperature at which gross decomposition starts” value in data set [6] was “Melt 100 °C, gross decomp starts 250 °C”.

As to `O=C(O)C(O)C(O)C(=O)O` (centres unmarked) [Tartrate], in data set [6], the decomposition temperature entry was “Melt ~140 °C, decomp ~200 °C”.

Fumarate: in data set [6], the decomposition temperature entry was “Decomp around 200 °C”.

As to Glycolate, the “temperature at which gross decomposition starts” value in data set [6] is “Melt 95 °C, gross decomp starts 170 °C”.

As to Oxalate, the mass loss result in data set [6] is “Melts 176 °C, full mass loss”.

Turning to Phosphate, in data set [6], the decomposition temperature result was “Decomp around 200 °C”.

In the case of Tosylate, the “temperature at which gross decomposition starts” value in data set [6] is “Melt 110 °C, gross decomp starts 280 °C”.
